The molecules below were run against T1, CYP17 (human testicular microsome) (Homo sapiens, UniProt P05093) (assay: CYP17 enzymatic assay (% inhibition at 1 nM) (Biological Example 12)). Conditions: compound at 1 nM, read-out: Biological Example No. 12: CYP17 enzymatic assay % inhibition at 1 nM.
T1 construct: using microsomal fraction from human testis (Celsis Cat #S00110) as the enzyme source; tissue Celsis S00110; host or cells: human testis microsomal fraction
T1 sequence (P05093 1-508): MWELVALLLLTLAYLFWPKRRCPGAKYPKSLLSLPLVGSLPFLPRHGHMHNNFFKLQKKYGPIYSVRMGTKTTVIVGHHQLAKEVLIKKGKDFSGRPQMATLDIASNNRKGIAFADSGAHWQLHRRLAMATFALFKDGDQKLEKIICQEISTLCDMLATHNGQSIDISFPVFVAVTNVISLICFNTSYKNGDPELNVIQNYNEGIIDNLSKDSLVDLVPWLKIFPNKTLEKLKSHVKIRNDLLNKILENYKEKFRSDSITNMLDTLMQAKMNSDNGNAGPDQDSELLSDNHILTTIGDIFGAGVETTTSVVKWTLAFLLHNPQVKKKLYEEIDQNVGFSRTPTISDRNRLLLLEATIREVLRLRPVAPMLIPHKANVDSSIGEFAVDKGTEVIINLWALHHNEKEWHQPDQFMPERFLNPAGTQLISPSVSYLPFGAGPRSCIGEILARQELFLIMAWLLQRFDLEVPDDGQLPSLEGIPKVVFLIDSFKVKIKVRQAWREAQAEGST
Assay type: biochemical

Compound | inhibition at 0.001 µM [%]
C[C@]12CC[C@H]3[C@@H](CCC45CC4C(O)CC[C@]35C)[C@@H]1CC=C2c1cncc(F)c1 (stereo partly drawn) [Compound 412, (4aR,6aS)-7-(5-fluoropyridin-3-yl)-4a,6a-dimethyl-1a,2,3,4,4a,4b,5,6,6a,9,9a,9b,10,11-tetradecahydro-1H-cyclopenta[a]cyclopropa[j]phenanthren-2-ol] | 10 to 50
Cc1cnc(F)c(C2=CCC3C4CC=C5C[C@@H](O)CC[C@]5(C)C4CC[C@]23C)c1 (stereo partly drawn) [Compound 277, (3S,10R,13S)-17-(2-fluoro-5-methylpyridin-3-yl)-10,13-dimethyl-2,3,4,7,8,9,10,11,12,13,14,15-dodecahydro-1H-cyclopenta[a]phenanthren-3-ol] | 10 to 50
Cc1cc(C2=CCC3C4CC=C5C[C@@H](O)CC[C@]5(C)C4CC[C@]23C)cnc1F (stereo partly drawn) [Compound 278, (3S,10R,13S)-17-(6-fluoro-5-methylpyridin-3-yl)-10,13-dimethyl-2,3,4,7,8,9,10,11,12,13,14,15-dodecahydro-1H-cyclopenta[a]phenanthren-3-ol] | < 10
C[C@]12CCNC(=O)CC1CCC1C2CC[C@]2(C)C(c3cncc(C(F)F)c3)=CCC12 (stereo partly drawn) [Compound 483, (5aS,7aS)-8-(5-(difluoromethyl)pyridin-3-yl)-5a,7a-dimethyl-3,4,5,5a,5b,6,7,7a,10,10a,10b,11,12,12a-tetradecahydrocyclopenta[5,6]naphtho[1,2-d]azepin-2(1H)-one] | > 50
C[C@]12CC[C@H](O)CC1=CCC1C2CC[C@]2(C)C(c3cncc(C#N)c3)=CCC12 (stereo partly drawn) [Compound 275, 5-((3S,10R,13S)-3-hydroxy-10,13-dimethyl-2,3,4,7,8,9,10,11,12,13,14,15-dodecahydro-1H-cyclopenta[a]phenanthren-17-yl)nicotinonitrile] | 10 to 50
C[C@]1(O)CC[C@@]2(C)C(CCC3C2CC[C@]2(C)C(c4cncc(Cl)c4)=CCC32)C1 (stereo partly drawn) [Compound 265, (3S,10S,13S)-17-(5-chloropyridin-3-yl)-3,10,13-trimethyl-2,3,4,5,6,7,8,9,10,11,12,13,14,15-tetradecahydro-1H-cyclopenta[a]phenanthren-3-ol] | < 10
C[C@@]1(O)CC[C@@]2(C)C(CCC3C2CC[C@]2(C)C(c4cncc(Cl)c4)=CCC32)C1 (stereo partly drawn) [Compound 266, (3R,10S,13S)-17-(5-chloropyridin-3-yl)-3,10,13-trimethyl-2,3,4,5,6,7,8,9,10,11,12,13,14,15-tetradecahydro-1H-cyclopenta[a]phenanthren-3-ol] | 10 to 50
C[C@]12CC(O)CC1CCC1C2CC[C@]2(C)C(c3cncc(Cl)c3)=CCC12 (stereo partly drawn) [Compound 397, (3aS,5aS)-6-(5-chloropyridin-3-yl)-3a,5a-dimethyl-1,2,3,3a,3b,4,5,5a,8,8a,8b,9,10,10a-tetradecahydrodicyclopenta[a,f]naphthalen-2-ol] | 10 to 50
Cc1ccncc1C(=O)O[C@H]1CC[C@@]2(C)C(=CC[C@H]3C4=CC=C(c5cccnc5)[C@@]4(C)CC[C@@H]32)C1 [Compound 205, (3S,10R,13S)-10,13-dimethyl-17-(pyridin-3-yl)-2,3,4,7,8,9,10,11,12,13-decahydro-1H-cyclopenta[a]phenanthren-3-yl 4-methylnicotinate] | 10 to 50
CC1C[C@@H]2[C@H](CC[C@]3(C)C(c4cccnc4)=CC[C@@H]23)[C@@]2(C)CCC(C)(O)C=C12 (stereo partly drawn) [Compound 423, (10R,13S)-3,6,10,13-tetramethyl-17-(pyridin-3-yl)-2,3,6,7,8,9,10,11,12,13,14,15-dodecahydro-1H-cyclopenta[a]phenanthren-3-ol] | 10 to 50
CC1C(O)CC[C@@]2(C)C1CCC1C2CC[C@]2(C)C(c3cncc(C(F)F)c3)=CCC12 (stereo partly drawn) [Compound 306, (10R,13S)-17-(5-(difluoromethyl)pyridin-3-yl)-4,10,13-trimethyl-2,3,4,5,6,7,8,9,10,11,12,13,14,15-tetradecahydro-1H-cyclopenta[a]phenanthren-3-ol] | < 10

Same assay, conditions: compound at 1 nM, read-out: CYP17 enzymatic assay % inhibition at 1 nM (Biological Example No. 12)

Compound | inhibition at 0.001 µM [%]
CC(C)(C)NC(=O)O[C@H]1CC[C@@]2(C)C(=CC[C@H]3C4=CC=C(c5cccnc5)[C@@]4(C)CC[C@@H]32)C1 [Compound 203, (3S,10R,13S)-10,13-dimethyl-17-(pyridin-3-yl)-2,3,4,7,8,9,10,11,12,13-decahydro-1H-cyclopenta[a]phenanthren-3-yl tert-butylcarbamate] | 10 to 50
C[C@]12CC[C@H]3[C@@H](CC(=O)C45CC4CC[C@]35C)C1=CC=C2c1cccnc1 (stereo partly drawn) [Compound 250, (3aR,5aS)-3a,5a-dimethyl-6-(pyridin-3-yl)-1a,2,3,3a,3b,4,5,5a,8b,9-decahydrocyclopenta[a]cyclopropa[2,3]cyclopenta[1,2-f]naphthalen-10(1H)-one] | > 50
COC1CC[C@@]2(C)C(=CCC3C2CC[C@]2(C)C(c4cccnc4)=CCC32)C1 (stereo partly drawn) [Compound 453, 3-((10R,13S)-3-methoxy-10,13-dimethyl-2,3,4,7,8,9,10,11,12,13,14,15-dodecahydro-1H-cyclopenta[a]phenanthren-17-yl)pyridine] | < 10
CC(C)(C)C(=O)O[C@H]1CC[C@@]2(C)C(=CCC3C4=CC=C(c5cccnc5)[C@@]4(C)CCC32)C1 (stereo partly drawn) [Compound 192, (3S,10R,13S)-10,13-dimethyl-17-(pyridin-3-yl)-2,3,4,7,8,9,10,11,12,13-decahydro-1H-cyclopenta[a]phenanthren-3-yl pivalate] | 10 to 50
CCNC(=O)N[C@@H]1CC[C@@]2(C)C(CC[C@@H]3[C@@H]2CC[C@]2(C)C(n4ccnc4)=CC[C@@H]32)C1 (stereo partly drawn) [Compound 247, 1-((3R,10S,13S)-17-(1H-imidazol-1-yl)-10,13-dimethyl-2,3,4,5,6,7,8,9,10,11,12,13,14,15-tetradecahydro-1H-cyclopenta[a]phenanthren-3-yl)-3-ethylurea] | > 50
CC(=O)N(C)C1CC[C@@]2(C)C(CCC3C2CC[C@]2(C)C(c4cccnc4)=CCC32)C1 (stereo partly drawn) [Compound 213, N-((10S,13S)-10,13-dimethyl-17-(pyridin-3-yl)-2,3,4,5,6,7,8,9,10,11,12,13,14,15-tetradecahydro-1H-cyclopenta[a]phenanthren-3-yl)-N-methylacetamide] | 10 to 50
C[C@]12CCC(NC(=O)c3nccs3)CC1=CCC1C2CC[C@]2(C)C(n3ccnc3)=CCC12 (stereo partly drawn) [Compound 241, N-((10R,13S)-17-(1H-imidazol-1-yl)-10,13-dimethyl-2,3,4,7,8,9,10,11,12,13,14,15-dodecahydro-1H-cyclopenta[a]phenanthren-3-yl)thiazole-2-carboxamide] | 10 to 50
CCc1ccncc1C1=CC=C2C3CCC4CNC(=O)CC[C@]4(C)C3CC[C@]12C (stereo partly drawn) [Compound 468, (5aR,7aS)-8-(4-ethylpyridin-3-yl)-5a,7a-dimethyl-1,2,5,5a,5b,6,7,7a,10b,11,12,12a-dodecahydrocyclopenta[5,6]naphtho[2,1-c]azepin-3(4H)-one] | 10 to 50

Same assay, conditions: test compound at 1 nM, read-out: CYP17 enzymatic assay percent inhibition at 1 nM (Biological Example No. 12)

Compound | inhibition at 0.001 µM [%]
C[C@@]1(O)CC[C@@]2(C)C(=CCC3C2CC[C@]2(C)C(c4cccnc4)=CCC32)C1 (stereo partly drawn) [Compound 267, (3R,10R,13S)-3,10,13-trimethyl-17-(pyridin-3-yl)-2,3,4,7,8,9,10,11,12,13,14,15-dodecahydro-1H-cyclopenta[a]phenanthren-3-ol] | > 50

Reference: patent publication US20130252930A1 (BIOMARIN PHARMACEUTICAL INC., priority 2010, published 2013)
